# Calls of active or inactive are those of the source.
# Assays:
# [1] = molecular target: Nucleotide-binding oligomerization domain-containing protein 2 (Homo sapiens, UniProt Q9HC29); experiment: NOD2 signaling inhibitors, cell-based, luminescence, uHTS, HEK293 (AID 1566); type: functional
# HEK293 [2] = experiment: NOD1 signaling inhibitors, primary screen, cell-based, luminescence, uHTS (AID 1578); type: functional; settings: Homo sapiens
# HEK293 [3] = experiment: cells; type: functional, cell-based; settings: Homo sapiens
# HEK293 [4] = experiment: cells; type: functional, cell-based; settings: Homo sapiens; remark: listed apart in the source
# HEK293 [5] = experiment: NOD2 signaling inhibitors in MDP-stimulated cells, cell-based, uHTS, luminescence (AID 2001); type: functional; settings: Homo sapiens
# HEK293 [6] = experiment: cells; type: functional, cell-based; settings: Homo sapiens; remark: listed apart in the source
# [7] = molecular target: T1, Short transient receptor potential channel 4 (Mus musculus, UniProt Q9QUQ5); experiment: mouse TRPC4 channel inhibitors, dose response, cell-based, HEK293 TRPC4/mu-opioid, Fluo-4 calcium (AID 434942); type: functional;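 note: potency of inhibitors blocking the TRPC4 calcium response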
# T1 sequence (Q9QUQ5 whole entry): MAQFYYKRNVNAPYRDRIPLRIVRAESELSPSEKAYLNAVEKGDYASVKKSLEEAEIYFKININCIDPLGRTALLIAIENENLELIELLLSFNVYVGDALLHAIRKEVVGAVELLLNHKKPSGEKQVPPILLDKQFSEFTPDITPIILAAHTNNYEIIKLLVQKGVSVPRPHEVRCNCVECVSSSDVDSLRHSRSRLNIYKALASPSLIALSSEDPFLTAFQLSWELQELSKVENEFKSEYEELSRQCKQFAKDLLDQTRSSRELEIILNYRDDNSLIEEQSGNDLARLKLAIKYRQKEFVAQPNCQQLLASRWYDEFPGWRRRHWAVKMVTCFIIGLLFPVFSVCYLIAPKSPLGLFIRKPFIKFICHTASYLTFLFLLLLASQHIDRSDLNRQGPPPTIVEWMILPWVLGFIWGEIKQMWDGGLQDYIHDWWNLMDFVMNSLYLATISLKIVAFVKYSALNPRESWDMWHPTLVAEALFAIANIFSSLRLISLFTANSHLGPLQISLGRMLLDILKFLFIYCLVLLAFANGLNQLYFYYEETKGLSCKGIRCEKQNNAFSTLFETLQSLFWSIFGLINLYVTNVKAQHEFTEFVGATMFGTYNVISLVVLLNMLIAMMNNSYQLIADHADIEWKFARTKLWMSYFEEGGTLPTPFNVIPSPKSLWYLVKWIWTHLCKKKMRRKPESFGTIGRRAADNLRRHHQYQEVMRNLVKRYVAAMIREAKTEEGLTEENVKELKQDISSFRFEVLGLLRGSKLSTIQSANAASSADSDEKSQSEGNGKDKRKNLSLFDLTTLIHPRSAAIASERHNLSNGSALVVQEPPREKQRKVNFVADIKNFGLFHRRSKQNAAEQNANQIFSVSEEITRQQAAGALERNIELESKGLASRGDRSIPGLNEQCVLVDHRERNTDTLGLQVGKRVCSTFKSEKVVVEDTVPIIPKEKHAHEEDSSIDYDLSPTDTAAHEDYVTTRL
# [8] = molecular target: Voltage-dependent T-type calcium channel subunit alpha-1H (Homo sapiens, UniProt O95180); type: functional;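 note: channel activity triggered by adding a high calcium stimulation buffer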
# Chain of Voltage-dependent T-type calcium channel subunit alpha-1H (O95180 whole entry, the tested form may be a part): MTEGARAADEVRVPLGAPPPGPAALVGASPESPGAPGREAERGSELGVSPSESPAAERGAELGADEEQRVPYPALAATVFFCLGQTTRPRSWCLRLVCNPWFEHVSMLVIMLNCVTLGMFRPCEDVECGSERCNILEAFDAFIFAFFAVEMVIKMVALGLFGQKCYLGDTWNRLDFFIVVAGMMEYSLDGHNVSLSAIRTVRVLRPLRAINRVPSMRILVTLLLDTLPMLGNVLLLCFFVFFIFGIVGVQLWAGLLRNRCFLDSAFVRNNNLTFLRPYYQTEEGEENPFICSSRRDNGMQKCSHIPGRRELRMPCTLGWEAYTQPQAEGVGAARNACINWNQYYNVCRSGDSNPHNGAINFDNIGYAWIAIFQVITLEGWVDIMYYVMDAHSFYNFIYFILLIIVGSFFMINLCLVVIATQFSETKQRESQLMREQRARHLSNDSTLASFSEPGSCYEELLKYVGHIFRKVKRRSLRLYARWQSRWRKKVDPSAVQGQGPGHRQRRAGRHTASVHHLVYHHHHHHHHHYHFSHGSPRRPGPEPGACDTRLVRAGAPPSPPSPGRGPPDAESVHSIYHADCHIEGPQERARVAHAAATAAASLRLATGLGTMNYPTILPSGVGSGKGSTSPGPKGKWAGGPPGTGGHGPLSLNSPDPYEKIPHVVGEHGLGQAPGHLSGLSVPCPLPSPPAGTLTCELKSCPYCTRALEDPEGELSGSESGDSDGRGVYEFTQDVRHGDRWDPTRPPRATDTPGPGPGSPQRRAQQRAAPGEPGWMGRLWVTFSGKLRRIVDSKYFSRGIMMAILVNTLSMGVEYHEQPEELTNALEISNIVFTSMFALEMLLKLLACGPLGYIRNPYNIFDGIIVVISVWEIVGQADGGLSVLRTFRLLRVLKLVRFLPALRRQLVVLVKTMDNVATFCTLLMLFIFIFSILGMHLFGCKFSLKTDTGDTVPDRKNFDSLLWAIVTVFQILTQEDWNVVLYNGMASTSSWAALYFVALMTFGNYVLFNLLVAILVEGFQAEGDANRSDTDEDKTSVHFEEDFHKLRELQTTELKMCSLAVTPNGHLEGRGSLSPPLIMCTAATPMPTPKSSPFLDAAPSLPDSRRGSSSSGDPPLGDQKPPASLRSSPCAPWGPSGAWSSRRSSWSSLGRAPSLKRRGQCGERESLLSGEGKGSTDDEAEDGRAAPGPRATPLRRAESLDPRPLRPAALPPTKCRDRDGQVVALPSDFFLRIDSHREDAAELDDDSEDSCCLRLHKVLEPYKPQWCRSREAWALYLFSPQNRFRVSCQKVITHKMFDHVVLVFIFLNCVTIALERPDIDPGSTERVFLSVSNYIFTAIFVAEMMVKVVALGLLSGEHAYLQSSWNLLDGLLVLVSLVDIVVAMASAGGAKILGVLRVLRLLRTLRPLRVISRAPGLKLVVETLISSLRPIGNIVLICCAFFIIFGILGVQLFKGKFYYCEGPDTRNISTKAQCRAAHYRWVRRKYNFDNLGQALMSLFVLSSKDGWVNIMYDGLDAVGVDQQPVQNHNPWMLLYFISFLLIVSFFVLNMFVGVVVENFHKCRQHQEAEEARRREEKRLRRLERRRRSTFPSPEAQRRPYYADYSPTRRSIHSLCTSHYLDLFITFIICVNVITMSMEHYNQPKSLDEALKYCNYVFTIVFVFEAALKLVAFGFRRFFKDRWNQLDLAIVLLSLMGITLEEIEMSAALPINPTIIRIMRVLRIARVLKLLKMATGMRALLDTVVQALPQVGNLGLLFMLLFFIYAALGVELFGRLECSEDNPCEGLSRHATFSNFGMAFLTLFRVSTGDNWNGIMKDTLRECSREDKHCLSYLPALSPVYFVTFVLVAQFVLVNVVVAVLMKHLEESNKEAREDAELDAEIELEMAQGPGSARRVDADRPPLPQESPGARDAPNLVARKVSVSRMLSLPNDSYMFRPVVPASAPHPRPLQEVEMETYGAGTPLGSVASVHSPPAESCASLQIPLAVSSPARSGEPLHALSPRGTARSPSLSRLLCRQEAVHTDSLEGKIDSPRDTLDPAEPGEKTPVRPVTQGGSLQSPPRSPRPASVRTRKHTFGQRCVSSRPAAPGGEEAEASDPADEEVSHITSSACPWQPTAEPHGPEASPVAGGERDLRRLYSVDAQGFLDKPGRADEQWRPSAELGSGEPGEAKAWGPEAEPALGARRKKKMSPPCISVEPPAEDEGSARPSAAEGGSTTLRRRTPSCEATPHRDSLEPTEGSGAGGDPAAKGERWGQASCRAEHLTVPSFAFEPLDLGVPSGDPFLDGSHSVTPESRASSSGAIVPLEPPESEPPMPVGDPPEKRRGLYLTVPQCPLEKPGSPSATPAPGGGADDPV
# [9] = molecular target: T2, Carboxy-terminal domain RNA polymerase II polypeptide A small phosphatase 1 (Homo sapiens, UniProt Q9GZU7); experiment: inhibitors of CTDSP1, concentration-response testing, biochemical assay, absorbance-based, actives from ultra-high-throughput screening (AID 540297); type: functional
# T2 sequence (Q9GZU7 whole entry): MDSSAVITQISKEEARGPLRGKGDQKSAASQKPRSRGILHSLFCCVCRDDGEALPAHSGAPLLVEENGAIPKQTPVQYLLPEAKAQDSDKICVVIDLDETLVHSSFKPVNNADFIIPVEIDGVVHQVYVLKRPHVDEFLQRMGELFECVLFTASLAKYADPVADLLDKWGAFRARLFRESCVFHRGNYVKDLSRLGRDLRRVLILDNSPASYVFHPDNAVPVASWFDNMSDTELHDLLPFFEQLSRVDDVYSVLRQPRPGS
# [10] = molecular target: Eukaryotic translation initiation factor 4E (Mus musculus, UniProt P63073); experiment: eIF4E–eIF4G protein interaction inhibitors, dose response, biochemical, TR-FRET (AID 855); type: functional;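 note: potency for disrupting eIF4E binding to eIF4GI seen as loss of FRET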
# Chain of Eukaryotic translation initiation factor 4E (P63073 whole entry): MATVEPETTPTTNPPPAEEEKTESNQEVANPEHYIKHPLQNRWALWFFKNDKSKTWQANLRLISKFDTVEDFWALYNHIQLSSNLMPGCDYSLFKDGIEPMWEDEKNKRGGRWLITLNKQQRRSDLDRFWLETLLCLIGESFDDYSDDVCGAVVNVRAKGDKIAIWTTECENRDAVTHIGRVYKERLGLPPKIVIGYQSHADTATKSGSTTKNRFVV
# Cytochrome P450 2C19 = Cytochrome P450 2C19 (Homo sapiens, UniProt P33261); experiment: Cytochrome panel assay with activity outcomes. Panel member name: p450-cyp2c19 Compounds with AC50 equal or less than 10 uM are considered active; type: functional; settings: read-out: AC50
# Chain of Cytochrome P450 2C19 (P33261 whole entry): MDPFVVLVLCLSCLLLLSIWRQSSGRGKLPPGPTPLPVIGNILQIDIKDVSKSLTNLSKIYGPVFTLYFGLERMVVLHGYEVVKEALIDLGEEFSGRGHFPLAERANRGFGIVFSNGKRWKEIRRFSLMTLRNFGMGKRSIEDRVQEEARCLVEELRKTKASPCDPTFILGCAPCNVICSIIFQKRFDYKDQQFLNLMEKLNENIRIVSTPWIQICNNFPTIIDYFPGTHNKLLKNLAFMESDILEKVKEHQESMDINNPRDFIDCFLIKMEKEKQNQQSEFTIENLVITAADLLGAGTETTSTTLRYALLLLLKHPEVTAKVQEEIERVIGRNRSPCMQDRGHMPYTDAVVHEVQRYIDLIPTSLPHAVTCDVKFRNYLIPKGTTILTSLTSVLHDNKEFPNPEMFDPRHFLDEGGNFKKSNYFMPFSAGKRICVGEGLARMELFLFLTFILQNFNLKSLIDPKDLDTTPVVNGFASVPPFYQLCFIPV
# [11] = molecular target: T3, Voltage-gated N-type calcium channel alpha-1B subunit/Amyloid beta A4 precursor protein-binding family A member 1 (Homo sapiens, UniProt Q00975+Q02410); type: protein assay
# [12] = molecular target: T3, Voltage-gated N-type calcium channel alpha-1B subunit/Amyloid beta A4 precursor protein-binding family A member 1; type: protein assay; remark: listed apart in the source
# [13] = molecular target: T4, Ubiquitin-conjugating enzyme E2 N (Homo sapiens, UniProt P61088); type: functional;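 note: Dose-response confirmation in a TR-FRET assay detecting UBC13-driven polyubiquitin chain formation, inhibition measured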
# T4 sequence (P61088 whole entry): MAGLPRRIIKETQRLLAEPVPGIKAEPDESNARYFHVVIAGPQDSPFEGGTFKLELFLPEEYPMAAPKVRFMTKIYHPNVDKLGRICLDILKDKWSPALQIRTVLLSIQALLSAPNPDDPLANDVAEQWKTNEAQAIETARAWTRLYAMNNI
# [14] = growth suppression of PTEN-null colon cells, dose response, cell-based, HCT116 PTEN knockout (AID 1047); type: functional;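 note: HCT116 colon tumor cells with PTEN knocked out; cells exposed to compound for 60 hours before readout; potency for loss of cell viability measured by luminescence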
# [15] = molecular target: T5, Corticotropin-releasing factor receptor 2/Corticotropin-releasing factor-binding protein (Homo sapiens, UniProt P24387+Q13324); experiment: activators of CRF receptor 2 with binding protein – uHTS hits, confirmation (AID 602473); type: functional; settings: read-out: EC50_Mean
# T5 sequence (Q13324 whole entry): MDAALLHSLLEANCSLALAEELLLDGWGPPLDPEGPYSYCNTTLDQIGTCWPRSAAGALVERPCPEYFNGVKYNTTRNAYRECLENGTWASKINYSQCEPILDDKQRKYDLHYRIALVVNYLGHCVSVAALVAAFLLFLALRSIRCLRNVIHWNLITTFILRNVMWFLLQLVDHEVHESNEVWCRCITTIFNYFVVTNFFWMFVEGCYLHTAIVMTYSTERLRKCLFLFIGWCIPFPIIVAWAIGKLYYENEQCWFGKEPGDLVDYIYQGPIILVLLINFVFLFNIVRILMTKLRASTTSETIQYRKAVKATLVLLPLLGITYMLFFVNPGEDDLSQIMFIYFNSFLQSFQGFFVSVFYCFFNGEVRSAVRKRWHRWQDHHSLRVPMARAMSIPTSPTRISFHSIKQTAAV
# T5 sequence (P24387 whole entry): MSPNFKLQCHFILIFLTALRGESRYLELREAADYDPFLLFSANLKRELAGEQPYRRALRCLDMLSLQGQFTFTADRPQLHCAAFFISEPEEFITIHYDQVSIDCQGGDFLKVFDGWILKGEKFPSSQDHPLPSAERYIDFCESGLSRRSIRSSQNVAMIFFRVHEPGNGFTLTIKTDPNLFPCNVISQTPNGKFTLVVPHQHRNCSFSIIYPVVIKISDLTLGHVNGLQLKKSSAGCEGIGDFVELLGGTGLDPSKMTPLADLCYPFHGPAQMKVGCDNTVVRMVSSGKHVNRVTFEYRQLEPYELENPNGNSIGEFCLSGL
# INS1 = experiment: beta cell apoptosis inhibitors, cytokine rescue, dose response, luminescence, retest (AID 449756); type: functional, cell-based; settings: Rattus norvegicus;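 note: cell death triggered by IL-1 beta plus TNF-alpha plus IFN-gamma mixture; protective hits raise ATP signal compared with cytokine alone wells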
# Streptokinase A = molecular target: T6, Streptokinase A (Streptococcus pyogenes serotype M1, UniProt P10520); experiment: S. pyogenes streptokinase expression inhibitors, potency, dose response, plasminogen activation absorbance, OD405 (AID 1914); type: functional, Streptococcus pyogenes M1 GAS;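 note: secreted streptokinase activity via plasminogen activation per viability signal from cell pellet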
# T6 sequence (P10520 whole entry): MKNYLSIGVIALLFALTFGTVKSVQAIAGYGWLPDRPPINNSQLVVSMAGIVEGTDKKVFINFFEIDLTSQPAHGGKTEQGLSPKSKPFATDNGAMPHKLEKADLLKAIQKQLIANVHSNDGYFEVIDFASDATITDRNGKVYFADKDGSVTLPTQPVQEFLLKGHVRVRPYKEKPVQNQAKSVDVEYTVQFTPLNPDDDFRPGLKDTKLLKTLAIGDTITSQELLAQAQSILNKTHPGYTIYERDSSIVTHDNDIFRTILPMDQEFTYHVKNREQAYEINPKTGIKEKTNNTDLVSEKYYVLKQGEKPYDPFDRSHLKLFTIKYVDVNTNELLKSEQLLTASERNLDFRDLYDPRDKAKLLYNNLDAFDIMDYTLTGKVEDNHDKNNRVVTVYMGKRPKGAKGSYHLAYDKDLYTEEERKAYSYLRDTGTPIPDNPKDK
# [16] = system: Streptococcus sp. 'group A'; experiment: growth inhibition of control SK(-) GAS strain, dose response, counter-screen for streptokinase expression inhibitor project, luminescence, kanamycin, BacTiterGlo, confirmation (AID 1900); type: functional, organism-based
# Streptococcus = experiment: Group A Streptococcus viability loss, dose response, counter-screen for streptokinase expression inhibitor project, luminescence, BacTiterGlo (AID 1915); type: functional, organism-based;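 note: potency for reduction of bacterial viability or growth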
# [17] = molecular target: T7, Zinc finger protein mex-5 (Caenorhabditis elegans, UniProt Q9XUB2); experiment: MEX-5/TCR-2 RNA interaction inhibitors, dose response, biochemical, C. elegans, fluorescence polarization (AID 1960)
# T7 sequence (Q9XUB2 whole entry): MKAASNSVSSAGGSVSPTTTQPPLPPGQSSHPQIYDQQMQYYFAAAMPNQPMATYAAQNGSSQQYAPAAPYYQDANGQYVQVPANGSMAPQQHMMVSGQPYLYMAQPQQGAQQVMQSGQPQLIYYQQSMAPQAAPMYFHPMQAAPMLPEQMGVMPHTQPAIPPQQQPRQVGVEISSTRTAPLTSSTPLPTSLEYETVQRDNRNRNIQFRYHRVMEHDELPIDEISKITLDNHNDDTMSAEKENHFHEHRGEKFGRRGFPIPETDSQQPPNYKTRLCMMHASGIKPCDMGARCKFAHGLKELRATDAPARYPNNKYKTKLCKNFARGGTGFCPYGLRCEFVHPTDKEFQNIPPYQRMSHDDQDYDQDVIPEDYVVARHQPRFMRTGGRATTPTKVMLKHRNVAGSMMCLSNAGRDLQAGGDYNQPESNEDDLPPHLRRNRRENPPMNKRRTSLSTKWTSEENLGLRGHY
# [18] = molecular target: T8, RNA-binding protein pos-1 (Caenorhabditis elegans, UniProt G5EF15); experiment: inhibitors of POS-1/mex-3 RNA binding, dose response, biochemical, fluorescence polarization (AID 1964);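 note: purified POS-1 fused to maltose binding protein made in E. coli; potency of compounds blocking POS-1 binding to fluorescent RNA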
# T8 sequence (G5EF15 whole entry): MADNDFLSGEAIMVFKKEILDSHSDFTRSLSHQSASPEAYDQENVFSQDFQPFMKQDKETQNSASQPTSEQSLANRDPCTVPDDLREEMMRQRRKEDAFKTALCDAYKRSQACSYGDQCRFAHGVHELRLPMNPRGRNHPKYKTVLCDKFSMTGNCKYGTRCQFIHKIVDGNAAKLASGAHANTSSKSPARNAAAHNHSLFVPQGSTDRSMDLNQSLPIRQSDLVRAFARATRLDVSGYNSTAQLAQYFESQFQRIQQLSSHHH
# Chain of Nucleotide-binding oligomerization domain-containing protein 2 (Q9HC29 whole entry, the tested form may be a part): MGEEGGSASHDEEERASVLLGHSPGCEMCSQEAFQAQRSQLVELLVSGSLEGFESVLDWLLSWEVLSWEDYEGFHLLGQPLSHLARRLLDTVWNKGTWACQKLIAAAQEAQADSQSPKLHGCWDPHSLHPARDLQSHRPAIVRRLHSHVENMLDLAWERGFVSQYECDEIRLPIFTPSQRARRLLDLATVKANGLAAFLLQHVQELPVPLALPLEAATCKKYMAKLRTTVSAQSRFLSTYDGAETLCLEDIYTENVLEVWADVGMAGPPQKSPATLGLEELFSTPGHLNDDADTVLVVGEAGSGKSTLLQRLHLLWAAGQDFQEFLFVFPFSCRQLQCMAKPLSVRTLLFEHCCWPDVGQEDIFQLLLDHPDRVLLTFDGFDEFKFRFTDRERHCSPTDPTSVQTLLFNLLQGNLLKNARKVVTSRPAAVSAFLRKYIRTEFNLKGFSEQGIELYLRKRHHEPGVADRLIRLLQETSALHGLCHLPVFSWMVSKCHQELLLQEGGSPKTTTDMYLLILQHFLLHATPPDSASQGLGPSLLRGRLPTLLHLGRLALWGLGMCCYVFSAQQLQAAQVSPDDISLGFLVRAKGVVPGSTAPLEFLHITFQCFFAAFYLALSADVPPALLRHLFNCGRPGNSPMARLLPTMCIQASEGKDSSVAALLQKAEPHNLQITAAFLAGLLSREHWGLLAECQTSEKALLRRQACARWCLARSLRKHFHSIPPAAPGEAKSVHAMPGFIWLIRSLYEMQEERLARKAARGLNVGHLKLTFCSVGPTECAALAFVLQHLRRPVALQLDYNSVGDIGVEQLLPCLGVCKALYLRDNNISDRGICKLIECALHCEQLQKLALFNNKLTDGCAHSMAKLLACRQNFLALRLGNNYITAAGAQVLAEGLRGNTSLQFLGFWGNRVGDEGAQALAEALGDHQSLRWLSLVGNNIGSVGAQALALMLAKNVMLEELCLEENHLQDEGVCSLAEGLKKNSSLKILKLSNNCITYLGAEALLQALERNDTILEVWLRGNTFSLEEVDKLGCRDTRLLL
smiles,measurement,setting,value
COc1ccccc1N1CCN(c2ncnc3sc(C)c(-c4ccccc4)c23)CC1,EC50,[1],11.5 µM (active)
same,EC50,HEK293 [2],5.48 µM (active)
same,IC50,HEK293 [3],17.2 µM (active)
same,IC50,HEK293 [4],> 20 µM (inactive)
same,IC50,HEK293 [5],6.98 µM (active)
same,IC50,HEK293 [6],6.68 µM (active)
OCC(Cc1ccccc1)NCc1ccccc1C(F)(F)F (stereo unspecified),EC50,[7],8.41 µM (active)
Cc1cccc(-c2noc(CN(C(=O)c3ccc(Br)o3)C(C)C)n2)c1,EC50,[8],11.1 µM (active)
O=C(COC(=O)c1cccc([N+](=O)[O-])c1)c1ccc2c(c1)OCO2,EC50,[7],0.0027 µM (active)
O=C(COC(=O)c1cc(-c2ccccc2Cl)nc2ccccc12)Nc1ncc(C(F)(F)F)cc1Cl,IC50,[9],39 µM (active)
O=C(O)c1cc(-c2ccccc2)n(-c2ccccc2C(=O)O)n1,IC50,[10],> 64 µM (inactive)
Cc1cc(NC(=O)C(C)Oc2ccc(Cl)cc2Cl)n(-c2ccccc2)n1 (stereo unspecified),EC50,[8],8.91 µM (active)
COc1ccc(NC2=NCC(=O)N2Cc2cccs2)cc1,IC50,[10],> 64 µM (inactive)
same,AC50,Cytochrome P450 2C19,8.91 µM (inconclusive)
CCC(=O)N1CCc2cc(S(=O)(=O)NCCN3CCCCC3CC)ccc21 (stereo unspecified),EC50,[7],2.66 µM (active)
CC(=O)Nc1ccc(NC(=O)c2cc(-c3ccc(C)c(C)c3O)[nH]n2)cc1,IC50,[11],23.2 µM (active)
same,IC50,[12],> 50 µM (inactive)
CCOC(=O)/C=C/C(=O)Nc1ccc(S(=O)(=O)N(C)c2ccccc2)cc1,EC50,[1],> 20 µM (inactive)
same,EC50,HEK293 [2],4.41 µM (active)
same,IC50,HEK293 [3],> 20 µM (inactive)
same,IC50,HEK293 [4],16.3 µM (active)
same,IC50,HEK293 [5],4.98 µM (active)
same,IC50,HEK293 [6],5.26 µM (active)
O=C(CCCCCN1C(=O)c2cccc3cccc(c23)C1=O)NCCO,IC50,[13],> 20 µM (inactive)
CC(C)NCC(O)COCCOc1ccc(C(C)(C)C)cc1 (stereo unspecified),EC50,[7],1.06 µM (active)
COC(=O)c1ccccc1NC(=O)c1cc(-c2ccco2)on1,IC50,[11],13.7 µM (active)
same,IC50,[12],> 50 µM (inactive)
Cc1ccc(Cn2nc(C)c(NC(=O)CSc3nc4c(c(C(F)(F)F)n3)CCc3ccccc3-4)c2C)cc1,EC50,[14],21 µM (active)
same,IC50,[10],> 64 µM (inactive)
CNC(=O)c1sc(N2N=C3/C(=C/c4ccccc4)CCCC3C2c2ccccc2)nc1C (stereo unspecified),EC50,[8],9.13 µM (active)
same,EC50,[15],16.1 µM (active)
same,AC50,INS1,6.72 µM (active)
CCN(CC)S(=O)(=O)c1ccc(NC(=O)c2cc(C(=O)OC)cc([N+](=O)[O-])c2)cc1,IC50,[10],> 64 µM (inactive)
CC(C(=O)N1CCCCC1)N1CCN(S(=O)(=O)c2ccc(Cl)cc2)CC1 (stereo unspecified),IC50,[9],54.9 µM (active)
COc1ccc(/C=N/NC(=O)Cc2csc(Nc3cccc(C(F)(F)F)c3)n2)cc1C,EC50,[8],4.82 µM (active)
same,EC50,Streptokinase A,10.4 µM (active)
same,EC50,[16],9.89 µM (active)
same,EC50,Streptococcus,> 150 µM (not active)
Cc1ccc(/N=C/c2nc(-c3ccc(C)cc3)oc2O)cc1,EC50,[17],68.7 µM (active)
same,EC50,[18],32.6 µM (active)
same,IC50,[10],50 µM (inactive)

# Reference: ChEMBL document CHEMBL1201862, “PubChem BioAssay data set” (2004)
